The test system of this assay is Sphaerotheca fuliginea. Description: Sphaerotheca test (cucumber)/preventive. The class given is in vivo. Conditions: preventive. An excerpt: One day after this treatment, the plants are inoculated with an aqueous spore suspension of Sphaerotheca fuliginea.

The structures appear in SMILES notation.

Take `Cc1ccccc1-c1ccccc1NC(=O)c1c(C(F)F)nn(C)c1F` [102 from WO-2007/006806, 3-(difluoromethyl)-5-fluoro-1-methyl-N-(2′-methylbiphenyl-2-yl)-1H-pyrazole-4-carboxamide]: the efficacy is, setting by setting: (Table A, dose 500 ppm) 20%; (500 ppm of active ingredient, evaluated 7 days after inoculation) “less than 20%”.

(Values after patent US9206137B2, “N-Aryl pyrazole(thio)carboxamides” (BAYER INTELLECTUAL PROPERTY GMBH, priority 2010, dated 2015).)
